System: OVCAR-8 complex spheroid, growth inhibition
Test: Anticancer human tumor OVCAR-8 cell line growth inhibition [Asc];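 further: spheroids exposed to agents for 7 days before readout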;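 on viability, T/C: percent viability relative to DMSO vehicle wells taken as 100%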
Conditions: for IC50: curve of first compound; for viability, T/C: stronger effect = lower value
Method in brief: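 Spheroid model: tumor line + HUVEC + hMSC. Single agents and combinations; top conc. at/near clinical Cmax (10 microM if undetermined), half-log dilutions. DMSO stocks at 800-fold test concentration.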

**Q.** What does the source list for `C#Cc1c(F)ccc2cc(O)cc(-c3ncc4c(N5CC6CCC(C5)N6)nc(OCC56CCCN5CC(F)C6)nc4c3F)c12` (centres undefined) + CCN1C(C(=O)NC23CCC(C(=O)O)(CC2)CC3)C(c2cccc(Cl)c2F)C2(C(=O)Nc3cc(Cl)ccc32)C12CCCCC2?
**A.** IC50 (second compound 0.00949 µM): > 10 µM; IC50 (second compound 0.03 µM): > 10 µM; IC50 (second compound 0.0949 µM): > 10 µM; IC50 (second compound 0.3 µM): > 10 µM; IC50 (second compound 0.949 µM): > 10 µM; IC50 (second compound 3 µM): > 10 µM; viability, T/C (second compound 0.00949 µM, first compound 0.0316 µM): 91.7%; viability, T/C (second compound 0.00949 µM, first compound 0.1 µM): 86.9%; viability, T/C (second compound 0.00949 µM, first compound 0.316 µM): 93.3%; viability, T/C (second compound 0.00949 µM, first compound 1 µM): 95.2%; viability, T/C (second compound 0.00949 µM, first compound 3.16 µM): 95.5%; viability, T/C (second compound 0.00949 µM, first compound 10 µM): 89.3%; viability, T/C (second compound 0.03 µM, first compound 0.0316 µM): 114%; viability, T/C (second compound 0.03 µM, first compound 0.1 µM): 96.3%; viability, T/C (second compound 0.03 µM, first compound 0.316 µM): 85.1%; viability, T/C (second compound 0.03 µM, first compound 1 µM): 97.3%; viability, T/C (second compound 0.03 µM, first compound 3.16 µM): 90.1%; viability, T/C (second compound 0.03 µM, first compound 10 µM): 91.5%; viability, T/C (second compound 0.0949 µM, first compound 0.0316 µM): 93.2%; viability, T/C (second compound 0.0949 µM, first compound 0.1 µM): 82.2%; viability, T/C (second compound 0.0949 µM, first compound 0.316 µM): 94.4%; viability, T/C (second compound 0.0949 µM, first compound 1 µM): 84%; viability, T/C (second compound 0.0949 µM, first compound 3.16 µM): 101%; viability, T/C (second compound 0.0949 µM, first compound 10 µM): 101%; viability, T/C (second compound 0.3 µM, first compound 0.0316 µM): 79.5%; viability, T/C (second compound 0.3 µM, first compound 0.1 µM): 86.8%; viability, T/C (second compound 0.3 µM, first compound 0.316 µM): 84.2%; viability, T/C (second compound 0.3 µM, first compound 1 µM): 91.7%; viability, T/C (second compound 0.3 µM, first compound 3.16 µM): 96.5%; viability, T/C (second compound 0.3 µM, first compound 10 µM): 98.2%; viability, T/C (second compound 0.949 µM, first compound 0.0316 µM): 93.5%; viability, T/C (second compound 0.949 µM, first compound 0.1 µM): 107%; viability, T/C (second compound 0.949 µM, first compound 0.316 µM): 90.8%; viability, T/C (second compound 0.949 µM, first compound 1 µM): 92.3%; viability, T/C (second compound 0.949 µM, first compound 3.16 µM): 103%; viability, T/C (second compound 0.949 µM, first compound 10 µM): 107%; viability, T/C (second compound 3 µM, first compound 0.0316 µM): 108%; viability, T/C (second compound 3 µM, first compound 0.1 µM): 93%; viability, T/C (second compound 3 µM, first compound 0.316 µM): 105%; viability, T/C (second compound 3 µM, first compound 1 µM): 115%; viability, T/C (second compound 3 µM, first compound 3.16 µM): 110%; viability, T/C (second compound 3 µM, first compound 10 µM): 112%

**Q.** Which IC50 (second compound 0.00949 µM) does the source give for `Cc1nc(N2CCC3(CC2)COC(C)C3N)c(CO)nc1Sc1ccnc(N)c1Cl` (centres undefined) + CCN1C(C(=O)NC23CCC(C(=O)O)(CC2)CC3)C(c2cccc(Cl)c2F)C2(C(=O)Nc3cc(Cl)ccc32)C12CCCCC2 here?
**A.** The IC50 was greater than 3 µM.

**Q.** What about the IC50 (second compound 0.03 µM) of the same compound?
**A.** The IC50 was greater than 3 µM.

**Q.** What about the IC50 (second compound 0.0949 µM) of the same compound?
**A.** Its IC50 is greater than 3 µM.

**Q.** What about the IC50 (second compound 0.3 µM) of the same compound?
**A.** Its IC50 is greater than 3 µM.

**Q.** And the IC50 (second compound 0.949 µM)?
**A.** The IC50 was greater than 3 µM.

**Q.** What about the IC50 (second compound 3 µM) of the same compound?
**A.** The IC50 was greater than 3 µM.

**Q.** And the viability, T/C (second compound 0.00949 µM, first compound 0.00949 µM)?
**A.** Its viability, T/C is 101%.

**Q.** And the viability, T/C (second compound 0.00949 µM, first compound 0.03 µM)?
**A.** The viability, T/C was 122%.

**Q.** What about the viability, T/C (second compound 0.00949 µM, first compound 0.0949 µM) of the same compound?
**A.** The viability, T/C was 152%.

**Q.** And the viability, T/C (second compound 0.00949 µM, first compound 0.3 µM)?
**A.** The viability, T/C was 216%.

**Q.** What about the viability, T/C (second compound 0.00949 µM, first compound 0.949 µM) of the same compound?
**A.** The viability, T/C was 263%.

**Q.** What about the viability, T/C (second compound 0.00949 µM, first compound 3 µM) of the same compound?
**A.** Its viability, T/C is 209%.

**Q.** And the viability, T/C (second compound 0.03 µM, first compound 0.00949 µM)?
**A.** Its viability, T/C is 108%.

**Q.** What about the viability, T/C (second compound 0.03 µM, first compound 0.03 µM) of the same compound?
**A.** Its viability, T/C is 139%.

**Q.** What about the viability, T/C (second compound 0.03 µM, first compound 0.0949 µM) of the same compound?
**A.** Its viability, T/C is 142%.

**Q.** What about the viability, T/C (second compound 0.03 µM, first compound 0.3 µM) of the same compound?
**A.** The viability, T/C was 204%.

**Q.** And the viability, T/C (second compound 0.03 µM, first compound 0.949 µM)?
**A.** The viability, T/C was 241%.

**Q.** And the viability, T/C (second compound 0.03 µM, first compound 3 µM)?
**A.** Its viability, T/C is 221%.

**Q.** What about the viability, T/C (second compound 0.0949 µM, first compound 0.00949 µM) of the same compound?
**A.** Its viability, T/C is 103%.

**Q.** And the viability, T/C (second compound 0.0949 µM, first compound 0.03 µM)?
**A.** The viability, T/C was 117%.

**Q.** And the viability, T/C (second compound 0.0949 µM, first compound 0.0949 µM)?
**A.** The viability, T/C was 154%.

**Q.** And the viability, T/C (second compound 0.0949 µM, first compound 0.3 µM)?
**A.** Its viability, T/C is 200%.

**Q.** What about the viability, T/C (second compound 0.0949 µM, first compound 0.949 µM) of the same compound?
**A.** Its viability, T/C is 244%.

**Q.** What about the viability, T/C (second compound 0.0949 µM, first compound 3 µM) of the same compound?
**A.** The viability, T/C was 228%.

**Q.** And the viability, T/C (second compound 0.3 µM, first compound 0.00949 µM)?
**A.** Its viability, T/C is 115%.

**Q.** What about the viability, T/C (second compound 0.3 µM, first compound 0.03 µM) of the same compound?
**A.** Its viability, T/C is 126%.

**Q.** And the viability, T/C (second compound 0.3 µM, first compound 0.0949 µM)?
**A.** The viability, T/C was 153%.

**Q.** What about the viability, T/C (second compound 0.3 µM, first compound 0.3 µM) of the same compound?
**A.** Its viability, T/C is 221%.

**Q.** And the viability, T/C (second compound 0.3 µM, first compound 0.949 µM)?
**A.** Its viability, T/C is 251%.

**Q.** And the viability, T/C (second compound 0.3 µM, first compound 3 µM)?
**A.** The viability, T/C was 232%.

**Q.** What about the viability, T/C (second compound 0.949 µM, first compound 0.00949 µM) of the same compound?
**A.** The viability, T/C was 106%.

**Q.** And the viability, T/C (second compound 0.949 µM, first compound 0.03 µM)?
**A.** The viability, T/C was 101%.

**Q.** What about the viability, T/C (second compound 0.949 µM, first compound 0.0949 µM) of the same compound?
**A.** The viability, T/C was 175%.

**Q.** And the viability, T/C (second compound 0.949 µM, first compound 0.3 µM)?
**A.** Its viability, T/C is 229%.

**Q.** What about the viability, T/C (second compound 0.949 µM, first compound 0.949 µM) of the same compound?
**A.** Its viability, T/C is 223%.

**Q.** What about the viability, T/C (second compound 0.949 µM, first compound 3 µM) of the same compound?
**A.** The viability, T/C was 214%.

**Q.** What about the viability, T/C (second compound 3 µM, first compound 0.00949 µM) of the same compound?
**A.** Its viability, T/C is 125%.

**Q.** What about the viability, T/C (second compound 3 µM, first compound 0.03 µM) of the same compound?
**A.** The viability, T/C was 140%.

**Q.** And the viability, T/C (second compound 3 µM, first compound 0.0949 µM)?
**A.** Its viability, T/C is 171%.

**Q.** And the viability, T/C (second compound 3 µM, first compound 0.3 µM)?
**A.** The viability, T/C was 214%.

**Q.** What about the viability, T/C (second compound 3 µM, first compound 0.949 µM) of the same compound?
**A.** The viability, T/C was 192%.

**Q.** And the viability, T/C (second compound 3 µM, first compound 3 µM)?
**A.** The viability, T/C was 169%.

— PubChem BioAssay AID1963437 (Molecular Pharmacology Branch, DTP, NCI, 2024)
